Results reported in ChEMBL document CHEMBL1122322, “Synthesis and antileishmanial activity of 6-methoxy-4-methyl-N-[6-(substituted-1-piperazinyl)hexyl]-8-quinolinamines and related compounds” (1983).
Active and inactive are the calls of the source. The rule behind the calls is not given here.

Tests used:
Leishmania donovani [1] = assay: Antileishmanial activity against Leishmania donovani infections in hamsters (0.81 mg/kg); type: functional
Leishmania donovani [2] = assay: Antileishmanial activity against Leishmania donovani infections in hamsters (at 13 mg/kg).; type: functional
Leishmania donovani [3] = assay: (§1) Antileishmanial activity against Leishmania donovani infections in hamsters (208 mg/kg); type: functional
Leishmania donovani [4] = assay: Antileishmanial activity against Leishmania donovani infections in hamsters (3.25 mg/kg); type: functional
Leishmania donovani [5] = assay: Antileishmanial activity against Leishmania donovani infections in hamsters (at 52 mg/kg).; type: functional
Leishmania donovani [6] = assay: Glucantime (meglumine antimoniate) index (G index) against Leishmania donovani infections in hamsters.; type: functional
Leishmania donovani [7] = assay: as §1; type: functional, organism-based
Leishmania donovani [8] = assay: Antileishmanial activity against Leishmania donovani infections in hamsters (0.2 mg/kg); type: functional
Leishmania donovani [9] = assay: Antileishmanial activity against Leishmania donovani infections in hamsters (208 mg/kg): Inactive; type: functional, organism-based
Leishmania donovani [10] = assay: Antileishmanial activity against Leishmania donovani infections in hamsters (0.05 mg/kg); type: functional
Leishmania donovani [11] = assay: Antileishmanial activity against Leishmania donovani infections in hamsters (3.25 mg/kg); NA means inactive; type: functional, organism-based
Leishmania donovani [12] = assay: Antileishmanial activity against Leishmania donovani infections in hamsters (104 mg/kg); type: functional, organism-based

| Compound | Suppression (Leishmania donovani [1]) [%] | Suppression (Leishmania donovani [2]) [%] | Suppression (Leishmania donovani [4]) [%] | Suppression (Leishmania donovani [5]) [%] | G index (Leishmania donovani [6]) | Suppression (Leishmania donovani [7]) | also measured |
| --- | --- | --- | --- | --- | --- | --- | --- |
| COc1cc(NCCCCCCN2CCN(c3ccccn3)CC2)c2nccc(C)c2c1 | 18.9 | 95.9 | 24.4 | 97.8 | 5 |  | Suppression (Leishmania donovani [3]): 97.5% |
| CCN(CC)CC(O)CN1CCN(CCCCCCNc2cc(OC)cc3c(C)ccnc23)CC1.Cl (centres undefined) |  | 99.7 | 32.6 | 99.9 | 6 | Toxic |  |
| CCOC(=O)N1CCN(CCCCCCNc2cc(OC)cc3c(C)ccnc23)CC1 | 23.9 | 99.9 | 99.1 | 99.9 | 33 |  | Suppression (Leishmania donovani [3]): 99.5% |
| COc1cc(NCCCCCCN2CCSCC2)c2nccc(C)c2c1.Cl | 27.61 | 99.8 | 59.9 | 100 | 6.4 | Toxic |  |
| COc1cc(NCCCCCCN2CCCN(C)CC2)c2nccc(C)c2c1 | 61 | 99.8 | 91.2 | 99.4 | 12 |  | Suppression (Leishmania donovani [3]): 98.6% |
| COc1cc(NCCCCCCN2CCN(CCCO)CC2)c2nccc(C)c2c1 |  | 96.3 |  | 97.8 | 38 | Toxic |  |
| COc1cc(NCCCCCCN2CCN(C(=O)OCc3ccccc3)CC2)c2nccc(C)c2c1.Cl |  | 54.6 |  | 98 | 2.3 | Toxic |  |
| CCN(CC)CCCCCCNc1cc(OC)cc2c(C)cc(C)nc12.Cl |  |  |  |  | 32 |  |  |
| COc1cc(NCCCCCCN2CCN(CC(O)CO)CC2)c2nccc(C)c2c1.Cl (centres undefined) | 98.5 | 100 | 99.98 | 99.9 | 57 | Toxic | Suppression (Leishmania donovani [8]): 25.8% |
| CCS(=O)(=O)N1CCN(CCCCCCNc2cc(OC)cc3c(C)ccnc23)CC1 |  | 94.8 |  | 99.8 | 4 |  | Suppression (Leishmania donovani [3]): 99.9% |
| COc1cc(NCCCCCCN2CCN(CCOC(c3ccccc3)c3ccccc3)CC2)c2nccc(C)c2c1.Cl |  | 83.5 |  | 99.5 | 5 |  | Suppression (Leishmania donovani [3]): 100% |
| CCS(=O)(=O)CCN1CCN(CCCCCCNc2cc(OC)cc3c(C)ccnc23)CC1 | 21.1 | 99.7 | 99.6 | 99.5 | 19 |  | Suppression (Leishmania donovani [3]): 99.9% |
| CCN(CC)C(=O)N1CCN(CCCCCCNc2cc(OC)cc3c(C)ccnc23)CC1.Cl |  | 98.8 | 72.2 | 98.6 | 8 | Toxic |  |
| COc1cc(NCCCCCCN2CCN(CCCCCCNc3cc(OC)cc4c(C)ccnc34)CC2)c2nccc(C)c2c1 |  |  |  |  |  |  | Suppression (Leishmania donovani [9]): inactive |
| CCNC(=O)N1CCN(CCCCCCNc2cc(OC)cc3c(C)ccnc23)CC1.Cl | 35.9 | 99.2 | 84.1 | 100 | 9 | Toxic |  |
| COc1cc(NCCCCCCN2CCN(CCO)CC2)c2nccc(C)c2c1Oc1cccc(C(F)(F)F)c1.Cl |  | 98 |  | 99.1 |  | Toxic |  |
| COc1cc(NCCCCCCNC(C)C)c2nc(C)cc(C)c2c1.Cl |  |  |  |  | 42 |  |  |
| COc1cc(NCCCCCCN2CC[S+]([O-])CC2)c2nccc(C)c2c1.Cl |  | 84.8 |  | 92.8 | 3 | Toxic |  |
| COc1cc(NCCCCCCN2CC(C)NC(C)C2)c2nccc(C)c2c1 (centres undefined) | 97.9 | 100 | 99.8 | 100 | 72 | Toxic | Suppression (Leishmania donovani [8]): 1.3% |
| COc1cc(NCCCCCCN2C[C@H](C)S[C@@H](C)C2)c2nccc(C)c2c1 |  | 21.4 |  | 65 | 0.4 |  | Suppression (Leishmania donovani [3]): 98.2% |
| COc1cc(NCCCCCCN2CCNc3ccccc32)c2nccc(C)c2c1 |  |  |  |  |  |  | Suppression (Leishmania donovani [9]): inactive |
| CC/N=C(\S)N1CCN(CCCCCCNc2cc(OC)cc3c(C)ccnc23)CC1.Cl |  |  |  |  | 2 |  |  |

| Compound | Suppression (Leishmania donovani [1]) [%] | Suppression (Leishmania donovani [2]) [%] | Suppression (Leishmania donovani [4]) [%] | Suppression (Leishmania donovani [5]) [%] | G index (Leishmania donovani [6]) | Suppression (Leishmania donovani [7]) | also measured |
| --- | --- | --- | --- | --- | --- | --- | --- |
| CCCN(CCC)C(=O)N1CCN(CCCCCCNc2cc(OC)cc3c(C)ccnc23)CC1.Cl |  | 89.7 |  | 99.4 | 6 |  | Suppression (Leishmania donovani [3]): 100% |
| CCC(CC)C(=O)N1CCN(CCCCCCNc2cc(OC)cc3c(C)ccnc23)CC1.Cl |  | 56.6 |  | 99.3 | 2.6 |  | Suppression (Leishmania donovani [3]): 98.6% |
| COc1cc(NCCCCCCN2CCN(C)CC2)c2nccc(C)c2c1.Cl | 64.7 | 99.7 | 99.3 | 100 | 26 |  | Suppression (Leishmania donovani [3]): 99.7% |
| COc1cc(NCCCCCCNC(C)C)c2nccc(C)c2c1Oc1cccc(C(F)(F)F)c1 |  | 98.6 |  |  |  | Toxic |  |
| COc1cc(NCCCCCCN2CCN(C(=O)N(c3ccccc3)c3ccccc3)CC2)c2nccc(C)c2c1 |  |  |  |  |  |  | Suppression (Leishmania donovani [9]): inactive |
| CCCCCCCCCCCCN1CCN(CCCCCCNc2cc(OC)cc3c(C)ccnc23)CC1 |  |  |  |  |  |  | Suppression (Leishmania donovani [9]): inactive |
| COc1cc(NCCCCCCN2CCN(C(c3ccccc3)c3ccc(Cl)cc3)CC2)c2nccc(C)c2c1.Cl.Cl (centres undefined) | 70 | 99.4 | 100 | 96.8 | 23 | Toxic |  |
| COc1cc(NCCCCCCN2CCN(CCC(C)C)CC2C)c2nccc(C)c2c1.Cl (centres undefined) | 96.6 | 98.9 | 100 | 99.8 | 72 | Toxic | Suppression (Leishmania donovani [8]): 57.3% |
| COc1cc(NCCCCCCN2CCN(CC(C)O)CC2)c2nccc(C)c2c1.Cl (centres undefined) | 99.8 | 99.1 | 99.4 | 99.7 | 143 | Toxic | Suppression (Leishmania donovani [10]): 35%; Suppression (Leishmania donovani [8]): 75.7% |
| CCN(CC)CCCCCCNc1cc(OC)c(Oc2cccc(C(F)(F)F)c2)c2c(C)ccnc12 |  | 99.6 |  | 100 |  | Toxic |  |
| COc1cc(NCCCCCCN2CCS(=O)(=O)CC2)c2nccc(C)c2c1 |  | 35 |  | 67.6 | 0.5 |  | Suppression (Leishmania donovani [3]): 100% |
| COc1cc(NCCCCCCN2CCN(CCO)CC2)c2nccc(C)c2c1.Cl | 85.8 | 100 | 97 | 100 | 104 |  |  |
| COc1cc(NCCCCCCN2C[C@@H](C)S[C@@H](C)C2)c2nccc(C)c2c1 |  | 81.1 |  | 93.7 | 1.5 | Toxic |  |
| COc1cc(NCCCCCCN2CCN(c3ccc(Cl)c(Cl)c3)CC2)c2nccc(C)c2c1 |  |  |  |  | <1 |  | Suppression (Leishmania donovani [3]): 77.8% |
| CCC(C)NCCCCCCNc1cc(OC)cc2c(C)cc(C)nc12.Cl (centres undefined) |  |  |  |  | 28 |  |  |
| COc1cc(NCCCCCCN2CCN(C3CCCCC3)CC2)c2nccc(C)c2c1 |  |  |  |  |  |  | Suppression (Leishmania donovani [9]): inactive |
| COc1cc(NCCCCCCN2CCN(C(=O)N3CCCC3)CC2)c2nccc(C)c2c1.Cl | 4.6 | 100 | 98.8 | 99.8 | 2.3 |  | Suppression (Leishmania donovani [3]): 100% |
| CCN(CC)CCCCCCNc1cc(OC)cc2c(C)ccnc12 [SITAMAQUINE] | 100 | 100 |  | 100 | 474 | Toxic | Suppression (Leishmania donovani [10]): 83.7%; Suppression (Leishmania donovani [8]): 99.6% |
| COc1cc(NCCCCCCN2CC(C)OC(C)C2)c2nccc(C)c2c1.Cl (centres undefined) | 61 | 99.1 | 98.7 | 99.1 | 24 | Toxic |  |
| MEGLUMINE ANTIMONATE |  | 42 |  |  | 1 |  | NA (Leishmania donovani [11]): inactive; Suppression (Leishmania donovani [12]): 91.3% |
| COc1cc(NCCCCCCN2CCN(CCCN(C)C)CC2)c2nccc(C)c2c1.Cl |  | 65.8 |  | 99.7 | 2 | Toxic |  |
| COc1cc(NCCCCCCN2CCN(S(=O)(=O)c3ccccc3)c3ccccc32)c2nccc(C)c2c1 |  |  |  |  |  |  | Suppression (Leishmania donovani [9]): inactive |
